Values of other authors, collected in patent publication US8133870B2, “Therapeutic furopyrimidines and thienopyrimidines” (BioCryst Pharmaceuticals, Inc., priority 2004, dated 2012).

System: HCV

NC(=O)c1ncn([C@@H]2O[C@H](CO)[C@@H](O)[C@H]2O)n1 [Ribavirin, 1-β-D-ribofuranosyl-1-1,2,4-triazole-3-carboxamide]
toxicity (ribavirin): significant toxicity
patients in whom serum amino transferase levels are reduced to normal (ribavirin alone, patients): 40%
serum levels of HCV-RNA (ribavirin alone, patients): does not lower serum levels of HCV-RNA
